Measurements reported in US9040524B2, “Antifungal 5,6-dihydro-4H-pyrrolo[1,2-a][1,4]-benzodiazepines and 6H-pyrrolo[1,2-a][1,4]benzodiazepines substituted with bicycle benzene derivatives” (JANSSEN PHARMACEUTICA NV, priority 2010, dated 2015).

Columns and labels:
Type in all cases: cell-based
Microsporum canis = experiment: Antifungal activity in vitro, resazurin growth inhibition screen: Microsporum canis; details: Microsporum canis B68128; for IC50: read-out: Inf. B pIC50 (converted)
Procedure: (§1) The standard susceptibility screen was performed in 96-well plates (U-bottom, Greiner Bio-One). Serial dilutions (2-fold or 4-fold) of 20 mM compound stock solutions were made in 100% DMSO, followed by an intermediate dilution step in water. These serial dilutions (10 μl) were then spotted onto test-plates that could be stored in the dark at 4° C. for a maximum period of 2 weeks. An adequate broad dose-range was included with 64 μM as the highest in-test concentration. […] The different fungal species/isolates (Table 3a) were cryopreserved and 1/1000 diluted in medium just prior to use. A standard inoculum of 200 μl containing 10^3 colony-forming unit (cfu) was then added to each well. A positive control (100% growth=fungal culture without antifungal) and a negative control (0% growth=RPMI-MOPS medium) were included on each plate.

Trichophyton rubrum = experiment: Antifungal activity in vitro, resazurin growth inhibition screen: Trichophyton rubrum; details: Trichophyton rubrum B68183; for IC50: read-out: Inf. C pIC50 (converted)
Procedure: as §1

Aspergillus fumigatus = experiment: Antifungal activity in vitro, resazurin growth inhibition screen: Aspergillus fumigatus; details: Aspergillus fumigatus B42928; for IC50: read-out: Inf. E pIC50 (converted)
Procedure: as §1

Sporothrix schenkii = experiment: Antifungal activity in vitro, resazurin growth inhibition screen: Sporothrix schenkii; details: Sporothrix schenkii B62482; for IC50: read-out: Inf. A pIC50 (converted)
Procedure: as §1

[1] = system: Trichophyton mentagrophytes; experiment: Antifungal activity in vitro, resazurin growth inhibition screen: Trichophyton mentagrophytes; details: Trichophyton mentagrophytes B70554; for IC50: read-out: Inf. G pIC50 (converted)
Procedure: as §1

Cryptococcus neoformans = experiment: Antifungal activity in vitro, resazurin growth inhibition screen: Cryptococcus neoformans; details: Cryptococcus neoformans B66663; for IC50: read-out: Inf. F pIC50 (converted)
Procedure: as §1

Candida parapsilosis = experiment: Antifungal activity in vitro, resazurin growth inhibition screen: Candida parapsilosis; details: Candida parapsilosis B66126; for IC50: Lodderomyces parapsilosis, read-out: Inf. D pIC50 (converted)
Procedure: as §1

Row | Compound | Inf. B pIC50 (Microsporum canis) | Inf. C pIC50 (Trichophyton rubrum) | Inf. E pIC50 (Aspergillus fumigatus) | Inf. A pIC50 (Sporothrix schenkii) | Inf. G pIC50 [1] | Inf. F pIC50 (Cryptococcus neoformans) | Inf. D pIC50 (Candida parapsilosis) | IC50 (Microsporum canis) [µM] | IC50 (Trichophyton rubrum) [µM] | IC50 (Aspergillus fumigatus) [µM] | IC50 (Sporothrix schenkii) [µM] | IC50 [1] [µM] | IC50 (Cryptococcus neoformans) [µM] | IC50 (Candida parapsilosis) [µM]
1 | Cl.Clc1cccc2c1CNC(c1ccc3c(c1)OCC3)c1cccn1-2 (stereo not drawn) [Compound 27, 7-chloro-4-(2,3-dihydro-6-benzofuranyl)-5,6-dihydro-4H-pyrrolo[1,2-a][1,4]benzo-diazepine .HCl] | 5.15 | 6.32 | <4.19 | <4.19 | 4.96 | <4.19 | <4.19 |  |  |  |  |  |  | 
2 | Fc1cccc2c1CN=C(c1ccc3c(c1)CCCO3)c1cccn1-2 [Compound 40, 4-(3,4-dihydro-2H-1-benzopyran-6-yl)-7-fluoro-6H-pyrrolo[1,2-a][1,4]benzo-diazepine] | 4.49 | <4.19 | <4.19 | <4.19 | <4.19 | 5.87 | 5.56 |  |  |  |  |  |  | 
3 | Cl.Clc1ccc2c(c1Cl)CNC(c1ccc3c(c1)CCC3)c1cccn1-2 (stereo not drawn) [Compound 18, 7,8-dichloro-4-(2,3-dihydro-1H-inden-5-yl)-5,6-dihydro-4H-pyrrolo[1,2-a][1,4]-benzodiazepine .HCl] | 4.62 | 5.70 | 4.67 | <4.19 | 5.26 | <4.19 | <4.19 |  |  |  |  |  |  | 
4 | Cl.Clc1cc(Cl)c2c(c1)-n1cccc1C(c1ccc3c(c1)CCO3)NC2 (stereo not drawn) [Compound 31, 7,9-dichloro-4-(2,3-dihydro-5-benzofuranyl)-5,6-dihydro-4H-pyrrolo[1,2-a][1,4]-benzodiazepine .HCl] | 5.52 | 6.00 | <4.19 | <4.19 | 5.80 | <4.19 | <4.19 |  |  |  |  |  |  | 
5 | CN1CCc2cc(C3=NCc4c(F)cccc4-n4cccc43)ccc21 [Compound 81, 4-(2,3-dihydro-1-methyl-1H-indol-5-yl)-7-fluoro-6H-pyrrolo[1,2-a][1,4]benzo-diazepine] | 5.28 | 5.65 | 4.39 | 4.49 | 4.90 | 5.29 | 4.60 |  |  |  |  |  |  | 
6 | Br.COc1cc2c(cc1C1NCc3c(Cl)cccc3-n3cccc31)CCCC2 (stereo not drawn) [Compound 15, 7-chloro-5,6-dihydro-4-(5,6,7,8-tetrahydro-3-methoxy-2-naphthalenyl)-4H-pyrrolo-[1,2-a][1,4]benzodiazepine .HBr] | <4.19 | 5.40 | <4.19 | <4.19 | <4.19 | <4.19 | <4.19 |  |  |  |  |  |  | 
7 | O=C1CCCc2cc(C3=NCc4cccc(Cl)c4-n4cccc43)ccc21 [Compound 61, 6-(10-chloro-6H-pyrrolo[1,2-a][1,4]benzodiazepin-4-yl)-3,4-dihydro-1 (2H)-naphthalenone] |  |  |  |  |  |  |  | > 64.6 | 49 | 32.4 | 31.6 | > 64.6 | 8.13 | 4.37
8 | O=C1CCc2cc(C3=NCc4cccc(Cl)c4-n4cccc43)ccc21 [Compound 57, 5-(10-chloro-6H-pyrrolo[1,2-a][1,4]benzodiazepin-4-yl)-2,3-dihydro-1H-inden-1-one] |  |  |  |  |  |  |  | 2 | 1.58 | 2.4 | 2.24 | 3.98 | 5.89 | > 64.6
9 | FC1(F)CCc2cc(C3=NCc4ccc(Cl)cc4-n4cccc43)ccc21 [Compound 67, 9-chloro-4-(1,1-difluoro-2,3-dihydro-1H-inden-5-yl)-6H-pyrrolo[1,2-a][1,4]benzo-diazepine] | 5.09 | <4.19 | 5.10 | 5.10 | 5.09 | 5.36 | 5.90 |  |  |  |  |  |  | 
10 | Cl.Fc1cc(F)c2c(c1)-n1cccc1C(c1ccc3c(c1)CCC(F)(F)O3)NC2 (stereo not drawn) [Compound 54, 4-(2,2-difluoro-3,4-dihydro-2H-1-benzopyran-6-yl)-7,9-difluoro-5,6-dihydro-4H-pyrrolo[1,2-a][1,4]benzodiazepine .HCl] | 5.09 | 5.10 | <4.19 | <4.19 | 4.49 | 5.11 | <4.19 |  |  |  |  |  |  | 
11 | Cl.Clc1ccc(Cl)c2c1CNC(c1ccc3c(c1)CCO3)c1cccn1-2 (stereo not drawn) [Compound 32, 7,10-dichloro-4-(2,3-dihydro-5-benzofuranyl)-5,6-dihydro-4H-pyrrolo[1,2-a][1,4]-benzodiazepine .HCl] | 5.52 | 5.22 | <4.19 | <4.19 | 4.92 | 4.64 | <4.19 |  |  |  |  |  |  | 
12 | Clc1ccc2c(c1)-n1cccc1C(c1ccc3c(c1)CCOC3)=NC2 [Compound 41, 9-chloro-4-(3,4-dihydro-1H-2-benzopyran-6-yl)-6H-pyrrolo[1,2-a][1,4]benzo-diazepine] | 4.48 | <4.19 | <4.19 | <4.19 | 4.49 | 4.52 | 5.60 |  |  |  |  |  |  | 
13 | Cl.Fc1cccc2c1CNC(c1ccc3c(c1)CCC(F)(F)O3)c1cccn1-2 (stereo not drawn) [Compound 53, 4-(2,2-difluoro-3,4-dihydro-2H-1-benzopyran-6-yl)-7-fluoro-5,6-dihydro-4H-pyrrolo[1,2-a][1,4]benzodiazepine .HCl] | 4.49 | 4.50 | 4.97 | <4.19 | 4.49 | 4.87 | <4.19 |  |  |  |  |  |  | 
14 | Cl.Clc1ccc2c(c1Cl)CNC(c1ccc3c(c1)CCO3)c1cccn1-2 (stereo not drawn) [Compound 30, 7,8-dichloro-4-(2,3-dihydro-5-benzofuranyl)-5,6-dihydro-4H-pyrrolo[1,2-a][1,4]-benzodiazepine .HCl] | 6.00 | 5.22 | <4.19 | <4.19 | 5.00 | 5.22 | <4.19 |  |  |  |  |  |  | 
15 | Br.Clc1cccc2c1-n1cccc1C(c1ccc3c(c1)OCO3)NC2 (stereo not drawn) [Compound 7, 4-(1,3-benzodioxol-5-yl)-10-chloro-5,6-dihydro-4H-pyrrolo[1,2-a][1,4]benzo-diazepine .HBr] | 5.30 | 5.40 | <4.19 | <4.19 | 4.47 | 4.64 | <4.19 |  |  |  |  |  |  | 
16 | Clc1cccc2c1-n1cccc1C(c1ccc3c(c1)CCOC3)=NC2 [Compound 82, 10-chloro-4-(3,4-dihydro-1H-2-benzopyran-6-yl)-6H-pyrrolo[1,2-a][1,4]benzo-diazepine] | 5.69 | 5.95 | 5.56 | 5.06 | 5.56 | 5.26 | 4.77 |  |  |  |  |  |  | 
17 | Clc1ccc(Cl)c2c1CN=C(c1ccc3c(c1)OCC3)c1cccn1-2 [Compound 47, 7,10-dichloro-4-(2,3-dihydro-6-benzofuranyl)-6H-pyrrolo[1,2-a][1,4]benzo-diazepine] | 5.40 | 5.92 | <4.19 | <4.19 | <4.19 | <4.19 | <4.19 |  |  |  |  |  |  | 
18 | Cl.Clc1ccc(Cl)c2c1CNC(c1ccc3c(c1)OCC3)c1cccn1-2 (stereo not drawn) [Compound 33, 7,10-dichloro-4-(2,3-dihydro-6-benzofuranyl)-5,6-dihydro-4H-pyrrolo[1,2-a][1,4]-benzodiazepine .HCl] | 5.52 | 5.15 | <4.19 | <4.19 | <4.19 | <4.19 | <4.19 |  |  |  |  |  |  | 
